Legend:
[1] = system: animal models of diet-induced obesity; conditions: cited from earlier work
[2] = cited from earlier work
[3] = system: 3T3-LI preadipocytes; conditions: in vitro; cited from earlier work
[4] = preclinical studies, therapeutic doses; cited from earlier work
[5] = Franz Cell study, rate of diffusion across a cellulose membrane; assay type: in vitro ADME; conditions: after 6 hours, transdermal formulation of 1% THCV
Procedure: A transdermal formulation of 1% THCV was prepared according to Table 1. The THCV formulation was subjected to a Franz Cell study, measuring the rate of diffusion across a cellulose membrane. As illustrated by the results, after 6 hours, 6.08 mg of THCV diffused across the cellulose membrane. The total dose of THCV applied to the membrane was 11.63 mg, and this calculates to a delivered dose of 52.3% of the THCV which is unexpected.

Row | Compound | body weight gain, adipose tissue mass, glucose tolerance and insulin sensitivity [1] | adipocyte differentiation and lipid accumulation [3] | safety profile and tolerability [4] | other results
1 | Cc1c(C(=O)NN2CCCCC2)nn(-c2ccc(Cl)cc2Cl)c1-c1ccc(Cl)cc1 [rimonabant] | reduce body weight gain, decrease adipose tissue mass, and improve glucose tolerance and insulin sensitivity |  |  | clinical safety ([2]; marketed use, later withdrawn): increased risk of psychiatric adverse effects
2 | CCCCCc1cc(O)cc(O)c1 [Olivetol] | reduce body weight gain, decrease adipose tissue mass, and improve glucose tolerance and insulin sensitivity | inhibit adipocyte differentiation and lipid accumulation | favorable safety profiles and are well-tolerated at therapeutic doses | 
3 | C[C@H](NC(=O)C(C)(C)Oc1ccc(C(F)(F)F)cn1)[C@@H](Cc1ccc(Cl)cc1)c1cccc(C#N)c1 [taranabant] | reduce body weight gain, decrease adipose tissue mass, and improve glucose tolerance and insulin sensitivity |  |  | body weight and metabolic parameters in clinical trials ([2]; clinical trials for the treatment of obesity): promising results in reducing body weight and improving metabolic parameters
4 | Tetrahydrocannabivarin [THCV] |  |  |  | delivered dose of the THCV ([5]; 6.08 mg of 11.63 mg applied): 52.3%; THCV diffused across the cellulose membrane ([5]; total dose applied 11.63 mg): 6.08 mg
5 | CCCCCCc1nc(-c2ccc(Cl)cc2)n(-c2ccc(Cl)cc2Cl)n1 [LH-21] | reduce body weight gain, decrease adipose tissue mass, and improve glucose tolerance and insulin sensitivity | inhibit adipocyte differentiation and lipid accumulation | favorable safety profiles and are well-tolerated at therapeutic doses | 

From US20250352559A1, “Transdermal Delivery Composition for Delivery of at least one Glucose Controlling Agent, and Method of Delivering at least one Glucose Controlling Agent” (Skinvisible Pharmaceuticals, Inc., priority 2024, published 2025)
